We go through one compound from patent US6432973B1, “Water soluble rapamycin esters” (Wyeth, priority 2000, dated 2002).

Converted amounts (≈) assume the structure as drawn.

For data set [1], the system named is U87MG human glioblastoma cells. Put plainly: inhibition of U87MG human glioblastoma cell growth (3H-thymidine incorporation). In kind it is cell-based. Conditions: U-87 MG, 48 hours incubation. How it is done:
The antitumor activity of the compounds of this invention were confirmed in a standard pharmacological test procedure which measures the inhibition of U87MG human glioblastoma cell growth (as a function of ^3H-thymidine incorporation), using CCl-779-PEG 5000 ester (Compound III) and CCl-779-(PEG 5000)2 ester (Compound IV) as representative compounds of this invention. The following briefly describes the procedure used and results obtained. U87MG human glioblastoma cells (ATCC #HTB-14; available from the American Type Culture Collection; 10801 University Boulevard; Manassas, Va. 20110;), were grown in the following media.
Growth Medium: BRL Minimum Essential Medium with Earle Salts (500 mL)
+5 mL BRL MEM Non-Essential Amino Acids (10 mM)
+5 mL BRL Na Pyruvate Solution (100 mM)
+5 mL BRL L-Glutamine 200 mM
+50 mL BRL Fetal Bovine Serum (Qualified)
1. Cells were trypsinized and plated at a concentration of 10^4 cells/well in a final volume of 200 μL growth medium in 96-well flat bottom plates and allowed to adhere for 24 hours at 37° C.
2. The media was removed by aspiration with care to not disturb the cell monolayer. 200 μL of fresh growth media was added per well, allowing enough wells for samples to be run in triplicate. Test compounds were added in 10 μL phosphate buffer solution (PBS) and incubated for another 48 hours at 37° C.
3. […]
4. […] Mats were counted in a Wallac Betaplate counter.

Data set [2] in a line: water solubility. The data set is classed as physicochemical. The source says:
Such doses may be administered in any manner useful in directing the active compounds herein to the recipient's bloodstream, including orally, via implants, parenterally (including intravenous, intraperitoneal and subcutaneous injections), rectally, intranasally, vaginally, and transdermally. […] This advantage is particularly important for oral and parenteral administration.

In the case of `CO[C@H]1C[C@@H]2CC[C@@H](C)[C@@](O)(O2)C(=O)C(=O)N2CCCC[C@H]2C(=O)O[C@H]([C@H](C)C[C@@H]2CC[C@@H](OC(=O)C(C)(CO)CO)[C@H](OC)C2)CC(=O)[C@H](C)/C=C(\C)[C@@H](O)[C@@H](OC)C(=O)[C@H](C)C[C@H](C)/C=C/C=C/C=C/1C` [CCI-779, rapamycin 42-ester with 3-hydroxy-2-(hydroxymethyl)-2-methylpropionic acid], half-maximal inhibition in data set [1] (IC50) was put at 0.6 ng/mL (≈ 0.582 nM). In data set [2], the solubility was < 1.1 µg/mL.
